# Measured values published in the supplement of paper PMC10307832.
# Columns and labels:
# Test in all cases: relative viability (nuclei count vs DMSO), 5 days (fraction); higher = more cells survive
# [1] = compound: CN(C)C[C@@H]1CCn2cc(c3ccccc32)C2=C(C(=O)NC2=O)c2cn(c3ccccc23)CCO1 [Ruboxistaurin] + Nc1ncn([C@H]2C[C@H](O)[C@@H](CO)O2)c(=O)n1 [Decitabine] (partner 2 µM)
# Procedure, shortened: (§1)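 Lung cancer cell lines, seeded in 1536-well plates, were treated the following day by pin tool with a single drug or with five library-drug doses (not always all listed) in √10 steps on top of a fixed anchor-drug dose. Cells were fixed and nuclei stained in one step after 5 days, and nuclei were counted. Relative viability is the nuclei count for treated wells divided by that for vehicle wells, reported as medians of duplicate plates.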
# [2] = compound: CN(C)C[C@@H]1CCn2cc(c3ccccc32)C2=C(C(=O)NC2=O)c2cn(c3ccccc23)CCO1 [Ruboxistaurin] + N=C(N)NC(=N)NCCc1ccccc1 [Phenformin] (partner 250 µM)
# Procedure, shortened: as §1
# [3] = compound: CN(C)C[C@@H]1CCn2cc(c3ccccc32)C2=C(C(=O)NC2=O)c2cn(c3ccccc23)CCO1 [Ruboxistaurin] + C[C@]1(O)C[C@@H](c2nc(-c3ccc4ccc(-c5ccccc5)nc4c3)c3c(N)nccn32)C1 [Linsitinib] (partner 1 µM)
# Procedure, shortened: as §1
# [4] = compound: CN(C)C[C@@H]1CCn2cc(c3ccccc32)C2=C(C(=O)NC2=O)c2cn(c3ccccc23)CCO1 [Ruboxistaurin] + NC(=O)Nc1cc(-c2cccc(F)c2)sc1C(=O)N[C@H]1CCCNC1 [AZD7762] (partner 0.2 µM)
# Procedure, shortened: as §1
# [5] = compound: CN(C)C[C@@H]1CCn2cc(c3ccccc32)C2=C(C(=O)NC2=O)c2cn(c3ccccc23)CCO1 [Ruboxistaurin] + CC(C)C[C@H](NC(=O)[C@H](Cc1ccccc1)NC(=O)c1cnccn1)B(O)O [Bortezomib] (partner 0.002 µM)
# Procedure, shortened: as §1
Cell Line,relative viability ([1]; first compound 0.08 µM),relative viability ([1]; first compound 0.8 µM),relative viability ([1]; first compound 2.53 µM),relative viability ([1]; first compound 8 µM),relative viability ([2]; first compound 0.08 µM),relative viability ([2]; first compound 0.8 µM),relative viability ([2]; first compound 2.53 µM),relative viability ([2]; first compound 8 µM),relative viability ([3]; first compound 0.08 µM),relative viability ([3]; first compound 0.8 µM),relative viability ([3]; first compound 2.53 µM),relative viability ([3]; first compound 8 µM),relative viability ([4]; first compound 0.08 µM),relative viability ([4]; first compound 0.8 µM),relative viability ([4]; first compound 2.53 µM),relative viability ([4]; first compound 8 µM),relative viability ([5]; first compound 0.08 µM),relative viability ([5]; first compound 0.8 µM),relative viability ([5]; first compound 2.53 µM),relative viability ([5]; first compound 8 µM)
NCI-H838,0.476,0.445,0.526,0.583,0.628,0.467,0.592,0.454,1.09,0.91,1.02,0.744,0.749,0.855,0.877,0.977,0.876,0.772,1.09,0.618
NCI-H1355,0.37,0.356,0.347,0.411,0.472,0.39,0.468,0.451,0.904,0.753,0.728,0.658,0.901,0.615,0.709,0.576,1.19,1.21,1.18,1.16
NCI-H1437,0.571,0.621,0.622,0.702,0.328,0.278,0.298,0.322,1.01,0.941,1.17,0.746,1.18,1.06,1.16,1.17,0.64,0.461,0.526,0.516
NCI-H1651,0.698,0.542,0.681,0.632,0.342,0.312,0.332,0.319,1.04,0.897,0.93,0.85,0.495,0.476,0.45,0.421,0.975,0.877,0.942,0.958
NCI-H1666,0.728,0.693,0.693,0.788,0.598,0.533,0.583,0.584,0.951,0.691,0.964,0.565,0.855,0.992,0.921,0.892,0.857,0.751,0.806,0.733
NCI-H1734,0.535,0.466,0.501,0.521,0.495,0.342,0.406,0.323,0.964,0.815,0.806,0.666,0.619,0.503,0.574,0.473,1.01,0.781,1.06,0.816
NCI-H1755,0.731,0.678,0.691,0.778,0.678,0.584,0.586,0.635,1.04,0.976,0.973,0.879,0.417,0.483,0.419,0.525,0.976,0.945,0.979,1.02
NCI-H1792,0.63,0.479,0.491,0.554,0.32,,0.247,0.243,0.536,0.449,0.506,0.487,0.775,0.576,0.533,0.389,0.995,0.928,0.915,1.03
NCI-H1915,0.252,0.262,0.277,0.268,0.35,0.349,0.363,0.376,1.12,1.04,1.03,1.07,0.705,0.62,0.716,0.689,0.985,0.928,0.985,0.896
NCI-H1975,0.43,0.346,0.393,0.42,0.431,0.392,0.414,0.418,1.07,0.916,0.938,0.769,0.784,0.639,0.686,0.601,0.392,0.311,0.424,0.392
NCI-H1993,0.579,0.559,0.582,0.522,0.529,0.518,0.525,0.568,0.63,0.695,0.62,0.703,0.958,0.57,0.93,0.296,1.3,0.925,1.01,0.83
NCI-H2085,0.485,0.534,0.67,0.667,0.789,0.655,0.745,0.674,1.01,0.806,0.861,0.809,1.05,0.957,1.14,0.981,1.07,0.987,1.09,1.17
NCI-H2087,0.243,0.21,0.241,0.263,0.494,0.409,0.481,0.472,1.13,0.874,0.98,0.884,1.46,1.17,1.38,1.44,0.794,0.615,0.798,1.04
NCI-H2126,0.586,0.581,0.562,0.552,0.573,0.52,0.541,0.52,0.744,0.641,0.749,0.665,1.03,0.91,0.981,0.962,1.11,1.05,1.18,1.16
NCI-H2347,0.648,0.58,0.626,0.664,0.557,0.382,0.488,0.367,0.943,0.902,0.92,0.984,0.989,0.73,0.797,0.606,1.25,1.11,0.957,1.02
NCI-H2405,0.798,0.676,0.763,0.756,0.427,0.391,0.414,0.38,1.01,0.866,1.01,0.902,0.817,0.701,0.8,0.715,1.01,1.01,1,0.94
NCI-H3122,0.535,0.376,0.466,0.426,0.409,0.372,0.413,0.379,1.03,0.978,1.03,1.01,0.98,0.909,1.05,1.1,1.07,0.953,1.01,1.1
PC-3 [JPC-3],0.897,0.814,0.922,0.838,0.471,0.47,0.492,0.517,0.974,0.91,0.915,1,0.869,0.754,0.906,0.675,0.855,0.804,0.793,0.85
PC-14,0.283,0.203,0.293,0.295,0.675,0.568,0.536,0.556,1.02,0.914,0.936,0.914,0.391,0.33,0.346,0.439,1.11,0.743,0.899,1.1
RERF-LC-KJ,0.784,0.587,0.743,0.682,0.458,0.426,0.443,0.406,0.877,0.857,0.932,0.956,1.05,1.04,0.982,1.19,1.09,0.992,1.1,0.937
